# Measurements taken from ChEMBL document CHEMBL3769303, “Discovery of membrane active benzimidazole quinolones-based topoisomerase inhibitors as potential DNA-binding antimicrobial agents” (Eur J Med Chem, 2016).
# Key:
# Type in all cases: functional
# Shigella dysenteriae = experiment: Antibacterial activity against Shigella dysenteriae by micro broth dilution method
# Staphylococcus aureus [1] = experiment: Antibacterial activity against methicillin-resistant Staphylococcus aureus N315 by micro broth dilution method
# Staphylococcus aureus [2] = experiment: Antibacterial activity against Staphylococcus aureus ATCC 25923 by micro broth dilution method
# Micrococcus luteus = experiment: Antibacterial activity against Micrococcus luteus ATCC 4698 by micro broth dilution method; settings: NCTC 2665
# Bacillus spizizenii = experiment: Antibacterial activity against Bacillus subtilis ATCC 6633 by micro broth dilution method
# Escherichia coli [3] = experiment: Antibacterial activity against Escherichia coli DH52 by micro broth dilution method
# Escherichia coli [4] = experiment: Antibacterial activity against Escherichia coli JM109 by micro broth dilution method
# Pseudomonas aeruginosa = experiment: Antibacterial activity against Pseudomonas aeruginosa ATCC 27853 by micro broth dilution method
# [5] = Antibacterial activity against Bacillus proteus ATCC 13315 by micro broth dilution method
# Salmonella enterica = experiment: Antibacterial activity against Salmonella enterica ATCC 14028 by micro broth dilution method
# [6] = Antifungal activity against Candida mycoderma ATCC 9888 after 24 hrs by micro broth dilution method; settings: Candida vini
# Cyberlindnera jadinii = experiment: Antifungal activity against Candida utilis ATCC 9950 after 24 hrs by micro broth dilution method; settings: Williopsis jadinii, ATCC 9950, 24 h
# Aspergillus flavus = experiment: Antifungal activity against Aspergillus flavus ATCC 204304 after 24 hrs by micro broth dilution method; settings: ATCC 204304, 24 h
# Saccharomyces cerevisiae = experiment: Antifungal activity against Saccharomyces cerevisiae ATCC 9763 after 24 hrs by micro broth dilution method; settings: ATCC 9763, 24 h
# Candida albicans = experiment: Antifungal activity against Candida albicans ATCC 10231 after 24 hrs by micro broth dilution method; settings: ATCC 10231, 24 h
SMILES,MIC (Shigella dysenteriae),MIC (Staphylococcus aureus [1]),MIC (Staphylococcus aureus [2]),MIC (Micrococcus luteus),MIC (Bacillus spizizenii),MIC (Escherichia coli [3]),MIC (Escherichia coli [4]),MIC (Pseudomonas aeruginosa),MIC [5],MIC (Salmonella enterica),MIC80 [6],MIC80 (Cyberlindnera jadinii),MIC80 (Aspergillus flavus),MIC80 (Saccharomyces cerevisiae),MIC80 (Candida albicans)
CCn1cc(C(=O)O)c(=O)c2cc(F)c(N3CCN(Cc4nc5ccccc5n4Cc4cccc(Cl)c4)CC3)cc21,64 µg/mL,2 µg/mL,64 µg/mL,2 µg/mL,16 µg/mL,8 µg/mL,64 µg/mL,2 µg/mL,32 µg/mL,4 µg/mL,2 µg/mL,4 µg/mL,1 µg/mL,8 µg/mL,8 µg/mL
O=C(O)c1cn(C2CC2)c2cc(N3CCN(Cc4nc5ccccc5n4Cc4cccc(F)c4)CC3)c(F)cc2c1=O,256 µg/mL,8 µg/mL,256 µg/mL,64 µg/mL,32 µg/mL,256 µg/mL,256 µg/mL,16 µg/mL,128 µg/mL,4 µg/mL,64 µg/mL,256 µg/mL,16 µg/mL,128 µg/mL,64 µg/mL
CCCCCCn1c(CN2CCN(c3cc4c(cc3F)c(=O)c(C(=O)O)cn4CC)CC2)nc2ccccc21,32 µg/mL,32 µg/mL,256 µg/mL,4 µg/mL,16 µg/mL,4 µg/mL,64 µg/mL,16 µg/mL,4 µg/mL,8 µg/mL,8 µg/mL,32 µg/mL,128 µg/mL,128 µg/mL,16 µg/mL
CCCCCCCCCCCCCCCCCCn1c(CN2CCN(c3cc4c(cc3F)c(=O)c(C(=O)O)cn4C3CC3)CC2)nc2ccccc21,64 µg/mL,64 µg/mL,64 µg/mL,128 µg/mL,64 µg/mL,128 µg/mL,128 µg/mL,32 µg/mL,64 µg/mL,16 µg/mL,64 µg/mL,128 µg/mL,64 µg/mL,64 µg/mL,128 µg/mL
O=C(O)c1cn(C2CC2)c2cc(N3CCN(Cc4nc5ccc([N+](=O)[O-])cc5[nH]4)CC3)c(F)cc2c1=O,4 µg/mL,2 µg/mL,16 µg/mL,8 µg/mL,8 µg/mL,4 µg/mL,8 µg/mL,0.5 µg/mL,4 µg/mL,4 µg/mL,8 µg/mL,4 µg/mL,4 µg/mL,4 µg/mL,2 µg/mL
CCCCCCCCCCCCn1c(CN2CCN(c3cc4c(cc3F)c(=O)c(C(=O)O)cn4C3CC3)CC2)nc2ccccc21,2 µg/mL,64 µg/mL,32 µg/mL,4 µg/mL,4 µg/mL,8 µg/mL,16 µg/mL,4 µg/mL,4 µg/mL,16 µg/mL,4 µg/mL,32 µg/mL,4 µg/mL,8 µg/mL,64 µg/mL
O=C(O)c1cn(C2CC2)c2cc(N3CCN(Cc4nc5ccccc5n4Cc4ccccc4F)CC3)c(F)cc2c1=O,4 µg/mL,0.25 µg/mL,16 µg/mL,0.25 µg/mL,8 µg/mL,1 µg/mL,2 µg/mL,2 µg/mL,1 µg/mL,0.25 µg/mL,16 µg/mL,8 µg/mL,16 µg/mL,32 µg/mL,32 µg/mL
O=C(O)c1cn(C2CC2)c2cc(N3CCN(Cc4nc5ccccc5n4Cc4cccc(Cl)c4)CC3)c(F)cc2c1=O,4 µg/mL,0.5 µg/mL,8 µg/mL,0.125 µg/mL,4 µg/mL,0.5 µg/mL,4 µg/mL,0.125 µg/mL,0.5 µg/mL,0.25 µg/mL,0.5 µg/mL,0.25 µg/mL,0.5 µg/mL,0.5 µg/mL,0.125 µg/mL
